Assay results taken from patent publication US10576085B2, “Substituted aminopurine compounds, compositions thereof, and methods of treatment therewith” (Signal Pharmaceuticals, LLC, priority 2016, dated 2020).

Key:
SW48 tumor = assay: β-catenin mutant SW48 colorectal xenograft model; format: in vivo, SCID mice; settings: FIGS. 15A-15B
Source text: Female SCID mice were inoculated with 2×10^6 SW48 tumor cells into the right flank. Mice were randomized into treatment groups (n=10/group) at the time of treatment initiation. Test article treatment started on Day 10 when the tumors were approximately 110 and 105 mm^3. (See FIGS. 15A-15B.) Black dotted line is the tumor volume at the initiation of dosing. Graph on the left is a dose-response study. Graph on the right is a time to progression study where animals were maintained on drug during the course of the study. Dotted line is the tumor volume on Day 28 when the vehicle control group was terminated.

SW48 = assay: Apoptosis, Caspase 3/7-Glo; format: cell-based; settings: SW48, CRC; CTNNB1 (S33Y); β-catenin Active
Description: (§1) Prior to testing, cells were grown and expanded in culture flasks to provide sufficient amounts of starting material. Cells were then diluted to the appropriate densities and added directly to the compound-spotted 384-well plates. Cells were allowed to grow for 72 h at 37° C./5% CO2. At the time when compound was added (t0), initial cell number was assessed via a viability assay (Cell Titer-Glo) by quantifying the level of luminescence generated by ATP present in viable cells. After 72 h, cell viability of compound-treated cells was assessed via Cell Titer-Glo and luminescence measurement. The apoptotic response to Compound 1 was assessed by quantifying the activities of caspase 3 and caspase 7 (Caspase 3/7-Glo) in treated cells and DMSO control cells.
(§2) Proliferation and apoptosis were measured using CellTiter-Glo and Caspase 3/7-Glo. CalX2 values are the lowest concentration at which Compound 1 induces a 2-fold increase of cleaved caspase 3/7 compared to DMSO control. Proliferation and apoptosis data is the average of 3 experiments.
(§3) The mutation status of BRAF, CTNNB1, KRAS, and EGFR in five cell lines evaluated was based on public data (COSMIC and CCLE) and confirmed internally. β-catenin status was evaluated using TOP Flash reporter system by transient transfection. A cell line was defined as β-catenin active if a ratio of Top Flash reporter over Fop Flash reporter is greater than 2. N/A: Not available. Transfection efficiency in Colo 205 (BRAF V600E) was too low to access its β-catenin activity using this approach. Antiproliferative and apoptotic activity of Compound 1 in the five cell lines were measured as described above.

LOX-IMVI = assay: Apoptosis, Caspase 3/7-Glo; format: cell-based; settings: Melanoma, BRAF (V600E), β-catenin Inactive
Description: as §1, §2, §3

Colo 205 = assay: Apoptosis, Caspase 3/7-Glo; format: cell-based; settings: Colo 205, CRC; BRAF (V600E); β-catenin status N/A
Description: as §1, §2, §3

AGS = assay: Apoptosis, Caspase 3/7-Glo; format: cell-based; settings: Gastric, CTNNB1 (G43E), KRAS (G12D), β-catenin Active
Description: as §1, §2, §3

[1] = system: beta-catenin and YAP target genes (Axin2, CTGF, AREG); assay: Beta-catenin and YAP target genes, qPCR, Colo 205; format: cell-based
Description: Cellular activity against beta-catenin and YAP target genes by Compound 1 was evaluated. Colon cancer cell line Colo 205 (BRAF V600E) cultures were treated with DMSO or increasing concentrations of Compound 1 for 2, 8 or 24 h. RNAs were extracted using Cell-To-CT kit and quantitative PCR was performed with probes specific for Axin2, CTGF, and AREG. Specific probes for β-actin were used for normalization.

FOCUS = assay: Apoptosis, Caspase 3/7-Glo; format: cell-based; settings: lowest concentration inducing 2-fold increase of cleaved caspase 3/7 vs DMSO
Description: as §1, §2

HepG2/C3A = assay: Apoptosis, Caspase 3/7-Glo; format: cell-based; settings: lowest concentration inducing 2-fold increase of cleaved caspase 3/7 vs DMSO
Description: as §1, §2

JHH-1 = assay: Apoptosis, Caspase 3/7-Glo; format: cell-based; settings: lowest concentration inducing 2-fold increase of cleaved caspase 3/7 vs DMSO
Description: as §1, §2

SNU-387 = assay: Apoptosis, Caspase 3/7-Glo; format: cell-based; settings: lowest concentration inducing 2-fold increase of cleaved caspase 3/7 vs DMSO
Description: as §1, §2

SNU-398 = assay: Apoptosis, Caspase 3/7-Glo; format: cell-based; settings: lowest concentration inducing 2-fold increase of cleaved caspase 3/7 vs DMSO
Description: as §1, §2

JHH-2 = assay: Apoptosis, Caspase 3/7-Glo; format: cell-based; settings: lowest concentration inducing 2-fold increase of cleaved caspase 3/7 vs DMSO
Description: as §1, §2

SNU-182 = assay: Apoptosis, Caspase 3/7-Glo; format: cell-based; settings: lowest concentration inducing 2-fold increase of cleaved caspase 3/7 vs DMSO
Description: as §1, §2

HuH-1 = assay: Apoptosis, Caspase 3/7-Glo; format: cell-based; settings: lowest concentration inducing 2-fold increase of cleaved caspase 3/7 vs DMSO
Description: as §1, §2

JHH-6 = assay: Apoptosis, Caspase 3/7-Glo; format: cell-based; settings: lowest concentration inducing 2-fold increase of cleaved caspase 3/7 vs DMSO
Description: as §1, §2

JHH-7 = assay: Apoptosis, Caspase 3/7-Glo; format: cell-based; settings: lowest concentration inducing 2-fold increase of cleaved caspase 3/7 vs DMSO
Description: as §1, §2

JHH-5 = assay: Apoptosis, Caspase 3/7-Glo; format: cell-based; settings: lowest concentration inducing 2-fold increase of cleaved caspase 3/7 vs DMSO
Description: as §1, §2

SK-HEP-1 = assay: Apoptosis, Caspase 3/7-Glo; format: cell-based; settings: lowest concentration inducing 2-fold increase of cleaved caspase 3/7 vs DMSO
Description: as §1, §2

Hep3B = assay: Apoptosis, Caspase 3/7-Glo; format: cell-based
Description: as §1, §2

SNU-449 = assay: Apoptosis, Caspase 3/7-Glo; format: cell-based; settings: lowest concentration inducing 2-fold increase of cleaved caspase 3/7 vs DMSO
Description: as §1, §2

JHH-4 = assay: Apoptosis, Caspase 3/7-Glo; format: cell-based; settings: lowest concentration inducing 2-fold increase of cleaved caspase 3/7 vs DMSO
Description: as §1, §2

HepG2 = assay: Apoptosis, Caspase 3/7-Glo; format: cell-based; settings: lowest concentration inducing 2-fold increase of cleaved caspase 3/7 vs DMSO
Description: as §1, §2

HLF = assay: Apoptosis, Caspase 3/7-Glo; format: cell-based; settings: lowest concentration inducing 2-fold increase of cleaved caspase 3/7 vs DMSO
Description: as §1, §2

HuH-6-Clone5 = assay: Apoptosis, Caspase 3/7-Glo; format: cell-based; settings: lowest concentration inducing 2-fold increase of cleaved caspase 3/7 vs DMSO
Description: as §1, §2

HuCCT1 = assay: Apoptosis, Caspase 3/7-Glo; format: cell-based; settings: lowest concentration inducing 2-fold increase of cleaved caspase 3/7 vs DMSO
Description: as §1, §2

SNU-475 = assay: Apoptosis, Caspase 3/7-Glo; format: cell-based; settings: lowest concentration inducing 2-fold increase of cleaved caspase 3/7 vs DMSO
Description: as §1, §2

SNU-423 = assay: Apoptosis, Caspase 3/7-Glo; format: cell-based; settings: lowest concentration inducing 2-fold increase of cleaved caspase 3/7 vs DMSO
Description: as §1, §2

PLC-PRF-5 = assay: Apoptosis, Caspase 3/7-Glo; format: cell-based; settings: lowest concentration inducing 2-fold increase of cleaved caspase 3/7 vs DMSO
Description: as §1, §2

HLE = assay: Apoptosis, Caspase 3/7-Glo; format: cell-based; settings: lowest concentration inducing 2-fold increase of cleaved caspase 3/7 vs DMSO
Description: as §1, §2

HuH-7 = assay: Apoptosis, Caspase 3/7-Glo; format: cell-based; settings: lowest concentration inducing 2-fold increase of cleaved caspase 3/7 vs DMSO
Description: as §1, §2

NLK = NLK (Homo sapiens, UniProt Q9UBE8); assay: Known kinases inhibited (no method given); format: biochemical
HT29 = assay: Proliferation, CellTiter-Glo, 72 h; format: cell-based

NLK, sequence (Q9UBE8 whole entry): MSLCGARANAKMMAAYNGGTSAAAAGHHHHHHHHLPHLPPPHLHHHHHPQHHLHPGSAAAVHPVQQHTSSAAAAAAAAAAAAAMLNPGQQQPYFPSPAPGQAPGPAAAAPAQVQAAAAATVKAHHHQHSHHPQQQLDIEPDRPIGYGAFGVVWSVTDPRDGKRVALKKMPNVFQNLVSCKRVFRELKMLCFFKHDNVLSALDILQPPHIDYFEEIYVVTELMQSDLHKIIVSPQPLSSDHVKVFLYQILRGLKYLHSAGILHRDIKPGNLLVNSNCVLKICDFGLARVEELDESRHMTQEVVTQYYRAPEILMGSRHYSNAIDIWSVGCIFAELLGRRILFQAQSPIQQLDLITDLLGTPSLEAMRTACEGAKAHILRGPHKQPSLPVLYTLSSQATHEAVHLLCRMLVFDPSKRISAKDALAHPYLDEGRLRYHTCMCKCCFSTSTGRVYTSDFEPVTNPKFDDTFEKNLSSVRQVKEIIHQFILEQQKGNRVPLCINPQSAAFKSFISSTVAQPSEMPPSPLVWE

Q: Which results are given for C[C@]1(C(N)=O)CC[C@@H](n2c(Nc3c(Cl)cc(Cl)cc3Cl)nc3cnc(N[C@@H]4CCOC[C@H]4F)nc32)CC1 [Compound 1, cis-4-[2-{[(3S,4R)-3-fluorooxan-4-yl]amino}-8-(2,4,6-trichloroanilino)-9H-purin-9-yl]-1-methyl cyclohexane-1-carboxamide]?
A: Antitumor activity (SW48 tumor): antitumor activity; Apoptosis induction CalX2 (SW48): 0.005 ± 0.001 µM; Apoptosis induction CalX2 (LOX-IMVI): 0.034 ± 0.028 µM; Apoptosis induction CalX2 (Colo 205): 0.053 ± 0.039 µM; Apoptosis induction CalX2 (AGS): 0.004 ± 0.002 µM; Axin2 RNA ([1]; Colo 205): increased Axin2 RNA; Expression of Hippo/YAP target genes (CTGF, AREG) ([1]; Colo 205 (BRAF V600E), 2, 8 and 24 hr): significantly reduced; Cal_X2 (FOCUS): 3.8562; Cal_X2 (HepG2/C3A): 0.8273; Cal_X2 (JHH-1): 0.0427; Cal_X2 (SNU-387): 0.0046; Cal_X2 (SNU-398): 0.0378; Cal_X2 (JHH-2): 0.2806; Cal_X2 (SNU-182): 5.2385; Cal_X2 (HuH-1): 6.5641; Cal_X2 (JHH-6): 10.0000; Cal_X2 (JHH-7): 4.7601; Cal_X2 (JHH-5): 0.0139; Cal_X2 (SK-HEP-1): 10.0000; Apoptosis induction CalX2 (Hep3B; HCC, β-catenin Active): 0.002 ± 0.002 µM; Cal_X2 (Hep3B; lowest concentration inducing 2-fold increase of cleaved caspase 3/7 vs DMSO): 0.0028; Cal_X2 (SNU-449): 10.0000; Cal_X2 (JHH-4): 0.0588; Cal_X2 (HepG2): 0.0129; Cal_X2 (HLF): 7.2156; Cal_X2 (HuH-6-Clone5): 1.5813; Cal_X2 (HuCCT1): 0.0213; Cal_X2 (SNU-475): 10.0000; Cal_X2 (SNU-423): 10.0000; Cal_X2 (PLC-PRF-5): 3.8310; Cal_X2 (HLE): 10.0000; Cal_X2 (HuH-7): 0.0118; Kinase inhibition (NLK): inhibited; Mode of growth effect (cytotoxic / cytostatic) (HT29): cytostatic
